From patent US20260191968A1, “PROTAC DEGRADERS OF MLLT1 AND/OR MLLT3” (DARK BLUE THERAPEUTICS LTD, priority 2024, published 2026)
Like-named read-outs stand apart in the source and are kept apart here.

Columns and labels:
Assay type in all cases: cell-based
MLLT1 [1] = biological target: T1, MLLT1 (Homo sapiens, UniProt Q03111); experiment: MLLT1 DC50 and Dmax determination in MV4-11 cells (JESS), dose response, 4 h; settings: MLLT1 degradation; for Dmax: maximum % degradation observed
T1 construct: host or cells: MV4-11
T1 sequence (Q03111 1-559): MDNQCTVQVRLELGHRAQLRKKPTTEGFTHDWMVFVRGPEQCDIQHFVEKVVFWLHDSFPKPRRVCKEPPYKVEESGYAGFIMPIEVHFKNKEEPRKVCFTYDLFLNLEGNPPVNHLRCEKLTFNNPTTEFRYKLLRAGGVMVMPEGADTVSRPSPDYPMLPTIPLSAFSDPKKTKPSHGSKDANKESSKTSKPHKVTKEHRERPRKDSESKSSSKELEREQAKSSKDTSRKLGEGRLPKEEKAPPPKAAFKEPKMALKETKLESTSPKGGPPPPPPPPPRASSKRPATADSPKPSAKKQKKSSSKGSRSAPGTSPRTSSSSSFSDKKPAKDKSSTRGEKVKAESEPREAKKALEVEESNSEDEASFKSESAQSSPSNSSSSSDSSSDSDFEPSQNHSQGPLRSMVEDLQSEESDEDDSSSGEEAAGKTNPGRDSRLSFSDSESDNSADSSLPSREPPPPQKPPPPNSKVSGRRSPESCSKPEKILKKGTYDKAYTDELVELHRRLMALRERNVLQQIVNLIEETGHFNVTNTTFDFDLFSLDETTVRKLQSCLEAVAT
Description: MLLT1 degradation efficacy of compounds was tested in an automated chemiluminescent detection system (JESS, Cat #004-650). MV4-11 (#CRL-9591, ATCC) were seeded at a density of 1.2 million cells/well in a non-treated 6-well cell culture plate in 2.4 mL of complete medium (IMDM+10% FBS+1X Penicillin-Streptomycin). 10 mM DMSO stocks were prepared, and cells were treated with eight concentrations of test compounds, starting from 100 nM, 5-fold dilution, at a final DMSO concentration of 0.1% and incubated for 4 h at 37° C., 5% CO2. Post incubation, cells were centrifuged, washed with HBSS and lysed in 60 μL of RIPA buffer supplemented with Protease inhibitors (sc-24948; Santa Cruz). Protein estimation was done using BCA protein assay kit (23228; Pierce). 4 μg protein lysate (4 μL of 1 μg/μL lysate) was loaded into each well of the JESS cartridge (SM-W004; Bio-techne) and the JESS run was performed using 1:900 dilution of anti-human MLLT1 antibody (ABE2596; Merck) and 1:1200 dilution of anti-human GAPDH antibody (2118; Cell signaling technology) with anti-rabbit secondary detection module (DM-001; Bio-Techne). Post run, data was analysed using “Compass for SW” software for chemiluminescent detection. Peak fit was done using “dropped lines” method. Peak area for MLLT1 and GAPDH was used for the calculation of MLLT1 degradation with respect to DMSO control. Data was shown as “% degradation”. % Degradation was plotted against the respective doses (test compound concentration) and dose-response curve (DRC) was generated using four-parameter logistic equation (non-linear regression). Following parameters for each DRC was captured: DC50 (concentration in nM at which degradation is 50%, interpolated from standard curve and transformed to linear scale), Dmax (maximum % degradation observed). DC50 and Dmax data are captured in Table 9 for Example 8 and Example 234, which is a comparative example.

MV4-11 cells = experiment: MV4-11 cellular proliferative assay, Assay Format B (CTG 2.0, 168 h); settings: Homo sapiens
Summary of the method: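 MV4-11 cells seeded overnight in IMDM + 10% FBS, then exposed to 10-point, 3-fold dilutions from 1 uM or 100 nM top concentration (0.3% DMSO final) for 168 h at 37 °C. CTG 2.0 luminescence read; % viability vs DMSO control fitted by four-parameter logistic regression.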

MLLT1 [2] = biological target: T1, MLLT1; experiment: MLLT1 degradation assay in MV4-11 cells (JESS chemiluminescent detection), three concentrations, 24 h; settings: with respect to DMSO control
Summary of the method: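 MV4-11 cells treated 24 h at 37° C, 5% CO2 with 1000, 100 and 10 nM compound (0.1% DMSO final). MLLT1 quantified by automated capillary chemiluminescent immunodetection; band peak area expressed as % degradation relative to DMSO control.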

[3] = Assay Method B, read-out: MV4-11 Antiproliferation IC50

| DC50 (MLLT1 [1]) [nM] | Dmax (MLLT1 [1]) [%] | IC50 (MV4-11 cells; 168 h (7 days), CTG 2.0, read-out: IC50 (MV4-11 cellular proliferative assay, Assay format B)) [nM] | IC50 (MV4-11 cells; [3]) [nM] | MLLT1% Degradation @ 0.01 μM (MLLT1 [2]; 0.01 μM) | MLLT1% Degradation @ 0.1 μM (MLLT1 [2]; 0.1 μM) | MLLT1% Degradation @ 1 μM (MLLT1 [2]; 1 μM) | SMILES |
| --- | --- | --- | --- | --- | --- | --- | --- |
| 0.4 | 87 | ≤ 100 | 1.5 | A (Category A: A ≥ 75% degradation) | A (Category A: A ≥ 75% degradation) | A (Category A: A ≥ 75% degradation) | CN1CCC[C@@H]1c1cc2cnc(NC(=O)c3ccc(CCCCC#Cc4cccc5c4CN(C4CCC(=O)NC4=O)C5=O)cc3)cc2[nH]1 (mixture of isomers) [Example 8, 4-(6-(2-(2,6-dioxopiperidin-3-yl)-1-oxoisoindolin-4-yl)hex-5-yn-1-yl)-N-(2-((R)-1-methylpyrrolidin-2-yl)-1H-pyrrolo[3,2-c]pyridin-6-yl)benzamide] |
| 6.4 | 60 |  | > 1000 |  |  |  | O=C1CCC(N2Cc3c(C#CCCCCc4ccc(C(=O)Nc5cc6[nH]c(CN7CCCC7)cc6cn5)cc4)cccc3C2=O)C(=O)N1 (stereo not shown) [Example 234, 4-(6-(2-(2,6-dioxopiperidin-3-yl)-1-oxoisoindolin-4-yl)hex-5-yn-1-yl)-N-(2-(pyrrolidin-1-ylmethyl)-1H-pyrrolo[3,2-c]pyridin-6-yl)benzamide] |
